Data published in ChEMBL document CHEMBL5357036, “Latest developments in coumarin-based anticancer agents: mechanism of action and structure-activity relationship studies” (RSC Med Chem, 2024).
Converted amounts (≈) assume the structure as drawn. Values belong to the compound of their own block, whether it stands above or below them.

What was measured:
SW480 = experiment: Cytotoxicity against human SW480 cells assessed as reduction in cell viability incubated for 48 hrs by MTT; format: functional, cell-based; conditions: SW480, 48 h
HCT-116 = experiment: Cytotoxicity against human HCT-116 cells assessed as reduction in cell viability incubated for 48 hrs by SRB assay; format: functional, cell-based; conditions: HCT-116, 48 h
HT-29 = experiment: Cytotoxicity against human HT-29 cells assessed as reduction in cell viability incubated for 48 hrs by SRB assay; format: functional, cell-based; conditions: HT-29, 48 h
MCF7 [1] = experiment: Cytotoxicity against human MCF7 cells assessed as inhibition of cell growth measured after 24 hrs by MTT assay; format: functional, cell-based; conditions: MCF7, 24 h
MCF7 [2] = experiment: Antiproliferative activity against human MCF7 cells assessed as reduction in cell viability measured after 24 hrs by MTT assay; format: functional, cell-based; conditions: MCF7, 24 h
MCF7 [3] = experiment: Cytotoxicity against human MCF7 cells assessed as cell growth inhibition incubated for 48 hrs by SRB assay; format: functional, cell-based; conditions: MCF7, 48 h
T47D = experiment: Anticancer activity against human T47D cells assessed as cell growth inhibition; format: functional, cell-based
MCF7 [4] = experiment: Growth inhibition of human MCF7 cells incubated for 48 hrs by SRB assay; format: functional
MCF7 [5] = experiment: Anticancer activity against human MCF7 cells assessed as cell growth inhibition by MTT assay; format: functional, cell-based
MCF7 [6] = experiment: Cytotoxicity against human MCF7 cells assessed as reduction in cell growth incubated for 48 hrs by MTT assay; format: functional, cell-based; conditions: MCF7, 48 h
A549 [7] = experiment: Cytotoxicity against human A549 cells assessed as reduction in cell growth incubated for 48 hrs by MTT assay; format: functional, cell-based; conditions: A549, 48 h
MCF7 [8] = experiment: cells; conditions: Homo sapiens, MCF7, 48 h
Description: Anticancer activity against human MCF7 cells assessed as inhibition of cell growth incubated for 48 hrs by SRB assay

MCF7 [9] = experiment: Cytotoxicity against human MCF7 cells assessed as reduction in cell growth incubated for 5 days by MTT assay; format: functional, cell-based; conditions: MCF7, 120 h
HOS = experiment: Cytotoxicity against human HOS cells assessed as reduction in cell growth incubated for 5 days by MTT assay; format: functional, cell-based; conditions: 120 h
MCF7 [10] = experiment: cells; conditions: Homo sapiens, MCF7, 24 h
Description: Cytotoxicity against human MCF7 cells assessed as reduction in cell viability incubated for 24 hrs by MTT assay

SK-OV-3 = experiment: Antiproliferative activity against human SK-OV-3 cells assessed as reduction in cell viability by MTT assay; format: functional, cell-based
MCF7-DOX = experiment: Antiproliferative activity against human MCF7-DOX cells assessed as reduction in cell viability by MTT assay; format: functional, cell-based
A549 [11] = experiment: Antiproliferative activity against human A549 cells assessed as reduction in cell viability by MTT assay; format: functional, cell-based
HepG2 [12] = experiment: Antiproliferative activity against human HepG2 cells assessed as reduction in cell viability by MTT assay; format: functional, cell-based
DU-145 = experiment: Antiproliferative activity against human DU-145 cells assessed as reduction in cell viability by MTT assay; format: functional, cell-based
HeLa = experiment: Antiproliferative activity against human HeLa cells assessed as reduction in cell viability by MTT assay; format: functional, cell-based
[13] = target: ALK tyrosine kinase receptor (Homo sapiens, UniProt Q9UM73, L1196M); experiment: Inhibition of ALK L1196M mutant (unknown origin)
Sequence of ALK tyrosine kinase receptor (Q9UM73 19-1620 L1196M limits assumed): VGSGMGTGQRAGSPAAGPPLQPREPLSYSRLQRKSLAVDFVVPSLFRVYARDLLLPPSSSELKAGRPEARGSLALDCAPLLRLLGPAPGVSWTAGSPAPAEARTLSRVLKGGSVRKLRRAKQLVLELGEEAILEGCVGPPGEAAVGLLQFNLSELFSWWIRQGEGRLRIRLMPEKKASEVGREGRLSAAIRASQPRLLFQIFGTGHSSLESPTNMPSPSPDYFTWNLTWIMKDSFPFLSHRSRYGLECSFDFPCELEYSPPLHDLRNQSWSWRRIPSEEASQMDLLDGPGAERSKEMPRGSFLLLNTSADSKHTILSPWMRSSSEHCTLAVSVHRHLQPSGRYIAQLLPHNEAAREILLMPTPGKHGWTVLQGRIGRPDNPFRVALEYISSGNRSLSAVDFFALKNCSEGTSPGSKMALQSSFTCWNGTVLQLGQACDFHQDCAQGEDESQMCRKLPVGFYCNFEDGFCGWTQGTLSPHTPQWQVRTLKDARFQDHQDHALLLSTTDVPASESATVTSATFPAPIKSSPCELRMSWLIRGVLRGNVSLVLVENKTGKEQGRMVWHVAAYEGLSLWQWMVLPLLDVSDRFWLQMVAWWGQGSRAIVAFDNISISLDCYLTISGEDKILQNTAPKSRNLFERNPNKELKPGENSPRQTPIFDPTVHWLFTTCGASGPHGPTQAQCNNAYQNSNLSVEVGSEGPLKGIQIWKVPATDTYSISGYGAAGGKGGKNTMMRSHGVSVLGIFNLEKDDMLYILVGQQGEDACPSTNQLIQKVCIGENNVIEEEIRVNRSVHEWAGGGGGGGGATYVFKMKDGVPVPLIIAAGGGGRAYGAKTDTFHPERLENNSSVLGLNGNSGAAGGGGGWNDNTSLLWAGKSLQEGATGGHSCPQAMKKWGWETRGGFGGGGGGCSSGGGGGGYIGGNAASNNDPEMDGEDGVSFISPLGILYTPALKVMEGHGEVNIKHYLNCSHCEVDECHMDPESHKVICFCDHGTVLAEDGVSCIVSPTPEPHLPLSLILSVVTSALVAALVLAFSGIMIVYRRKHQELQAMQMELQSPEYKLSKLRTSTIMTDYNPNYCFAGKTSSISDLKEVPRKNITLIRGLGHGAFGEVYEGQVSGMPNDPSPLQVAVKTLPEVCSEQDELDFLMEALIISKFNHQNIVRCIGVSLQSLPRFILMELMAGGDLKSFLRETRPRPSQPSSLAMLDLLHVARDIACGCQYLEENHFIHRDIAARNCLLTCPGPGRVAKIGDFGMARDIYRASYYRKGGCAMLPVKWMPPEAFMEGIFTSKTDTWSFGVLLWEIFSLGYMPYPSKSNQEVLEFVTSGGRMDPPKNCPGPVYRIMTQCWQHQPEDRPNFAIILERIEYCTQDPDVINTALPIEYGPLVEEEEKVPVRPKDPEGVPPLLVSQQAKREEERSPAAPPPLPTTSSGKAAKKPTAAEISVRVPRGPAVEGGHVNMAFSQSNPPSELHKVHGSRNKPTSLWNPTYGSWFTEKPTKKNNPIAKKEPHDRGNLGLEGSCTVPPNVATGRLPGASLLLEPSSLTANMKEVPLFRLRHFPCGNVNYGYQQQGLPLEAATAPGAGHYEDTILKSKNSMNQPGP

HepG2 [14] = experiment: Cytotoxicity against human HepG2 cells assessed as reduction in cell viability; format: functional, cell-based
MCF7 [15] = experiment: Antiproliferative activity against human MCF7 cells assessed as reduction in cell viability by MTT assay; format: functional, cell-based
K562 = experiment: Cytotoxicity against human K562 cells assessed as reduction in cell growth by MTT assay; format: functional, cell-based
MDA-MB-231 [16] = experiment: Antiproliferative activity against human MDA-MB-231 cells assessed as reduction in cell viability measured after 72 hrs under normoxia condition by MTT assay; conditions: MDA-MB-231, 72 h
MDA-MB-231 [17] = experiment: Antiproliferative activity against human MDA-MB-231 cells assessed as reduction in cell viability measured after 72 hrs under hypoxia condition by MTT assay; format: functional, cell-based; conditions: MDA-MB-231, 72 h

Compound: CCCCCCCCOc1ccc2c(C)c(/C=C/c3cc(OC)ccc3OC)c(=O)oc2c1
IC50 (SW480): 6.92 µM

Compound: CCCc1cc(=O)oc2cc(Nc3nc(-c4ccc(Br)cc4)cs3)ccc12
IC50 (HCT-116): 0.26 µM
IC50 (HT-29): 0.25 µM

Compound: COc1ccc(-c2cc(-c3cc4ccccc4oc3=O)nc3nc(C)[nH]c(=O)c23)cc1
IC50 (MCF7 [1]): 1.1 µM

IC50 (MCF7 [2]): 53.6 µM
Compound: Cc1cc(OCc2cn(C3C(=O)N(c4cccc([N+](=O)[O-])c4)C3/C=C\c3ccccc3)nn2)cc2oc(=O)cc(C)c12 (stereo unspecified)

Compound: COc1cc(/C=C2/SC(=O)N(CCCOc3ccc4c(C)cc(=O)oc4c3)C2=O)cc(OC)c1O
IC50 (MCF7 [3]): 12.1 µg/mL (≈ 24.4 µM)

IC50 (T47D): 2.32 µM
GI50 (MCF7 [4]): 32.5 µg/mL (≈ 75 µM)
Compound: COc1cc(/C=C/C(=O)c2cc3ccccc3oc2=O)ccc1OCCN1CCCCC1

Compound: Cc1cc(=O)oc2cc(Nc3nc(-c4ccc(Cl)cc4)cs3)ccc12
IC50 (HCT-116): 0.25 µM
IC50 (HT-29): 0.25 µM

Compound: COc1ccc(-c2cc(-c3cc4ccccc4oc3=O)nc(N)c2C(N)=O)cc1
IC50 (MCF7 [1]): 1.1 µM

Compound: COc1ccccc1-c1csc(Nc2ccc3c(C)cc(=O)oc3c2)n1
IC50 (HCT-116): 0.25 µM
IC50 (HT-29): 0.25 µM

Compound: COc1ccc(/C=C2/SC(=O)N(CCCOc3ccc4c(C)cc(=O)oc4c3)C2=O)cc1
IC50 (MCF7 [3]): 15.6 µg/mL (≈ 34.7 µM)

IC50 (MCF7 [5]): 8 µM
Compound: CCN(CC)c1ccc2oc(=O)c(-c3csc(-n4nc(-c5ccccc5)cc4N)n3)cc2c1

Compound: Cc1c(NC(=O)CNCc2cccnc2)c(=O)oc2ccccc12
IC50 (MCF7 [6]): 69.1 µM
IC50 (A549 [7]): 69.1 µM

Compound: COc1ccc(-c2cc(-c3cc4ccccc4oc3=O)nc(NC(C)=O)c2C#N)cc1
IC50 (MCF7 [1]): 1.1 µM

IC50 (MCF7 [8]): 5.41 µM
Compound: Cc1nc(N2N=C(c3cc4ccccc4oc3=O)CC2c2ccc(N(C)C)cc2)sc1/N=N/c1ccc(Cl)cc1 (stereo unspecified)

Compound: COc1cc(/C=C/c2ccc3ccc(=O)oc3c2)cc(OC)c1O
IC50 (SW480): 1.01 µM

Compound: CC(c1cc2ccccc2oc1=O)(c1c[nH]c2ccc(I)cc12)c1c[nH]c2ccc(I)cc12
IC50 (MCF7 [9]): 28 µM
IC50 (HOS): 8.75 µM

IC50 (MCF7 [10]): 10.5 µM
Compound: C/C(=N\Nc1nc(C)c(/N=N/c2ccc(Cl)cc2)s1)c1cc2cc(/N=N/c3ccccc3)ccc2oc1=O

IC50 (SK-OV-3): 18 µM
IC50 (MCF7-DOX): 15.5 µM
IC50 (A549 [11]): 18.7 µM
IC50 (HepG2 [12]): 19.9 µM
IC50 (DU-145): 31.5 µM
IC50 (HeLa): 21.3 µM
Compound: Cc1ccc2c(c1)/C(=N\O)C(=O)N2CCOCCn1cc(COc2ccc3c(C)cc(=O)oc3c2)nn1

IC50 [13]: 0.45 µM
Compound: COc1ccc2cc(-c3nc4ccc(OC)cc4s3)c(=O)oc2c1

IC50 (MCF7 [2]): 58.6 µM
Compound: Cc1cc(OCc2cn(C3C(=O)N(c4cccc(Cl)c4)C3/C=C\c3ccccc3)nn2)cc2oc(=O)cc(C)c12 (stereo unspecified)

Compound: CC(c1cc2ccccc2oc1=O)(c1c[nH]c2ccccc12)c1c[nH]c2ccccc12
IC50 (MCF7 [9]): 19.8 µM
IC50 (HOS): 20.8 µM

Compound: CO[C@@H]1O[C@H](Cn2nncc2COc2cc(=O)oc3ccccc23)[C@@H](O)[C@H](O)[C@H]1O
IC50 (HepG2 [14]): 107 µg/mL (≈ 255 µM)

IC50 (T47D): 2.32 µM
GI50 (MCF7 [4]): 18.9 µg/mL (≈ 46.8 µM)
Compound: O=C(/C=C/c1ccccc1OCCN1CCCCC1)c1cc2ccccc2oc1=O

IC50 (SK-OV-3): 35.3 µM
IC50 (MCF7 [15]): 29.2 µM
IC50 (MCF7-DOX): 20.1 µM
IC50 (A549 [11]): 28.7 µM
IC50 (HepG2 [12]): 26.1 µM
IC50 (DU-145): 33.4 µM
IC50 (HeLa): 25.5 µM
Compound: CO/N=C1\C(=O)N(CCOCCOCCOCCn2cc(COc3ccc4c(C)cc(=O)oc4c3)nn2)c2ccc(F)cc21

IC50 (T47D): 0.9 µM
Compound: O=C(/C=C/c1ccc(N2CCOCC2)cc1)c1cc2ccccc2oc1=O

Compound: Cc1c(Cc2ccc(NC(=O)Nc3ccc(Cl)c(F)c3)nc2)c(=O)oc2cc(O)c(C(C)(C)C)cc12
IC50 (K562): 1.66 µM

IC50 (MCF7 [15]): 28.7 µM
Compound: Cc1ccc2c(c1)C(=O)C(=O)N2CCOCCn1cc(COc2ccc3c(C)cc(=O)oc3c2)nn1

Compound: O=c1cc(O)c2ccccc2o1 [4-HYDROXYCOUMARINS]
IC50 (MDA-MB-231 [16]): ≥ 100 µM
IC50 (MDA-MB-231 [17]): ≥ 100 µM

IC50 (MDA-MB-231 [16]): 1.07 µM
IC50 (MDA-MB-231 [17]): 0.6 µM
Compound: COc1cccc2c1C(=O)c1c(O)c3c(c(O)c1C2=O)C[C@@](O)(C(=O)CO)C[C@@H]3O[C@H]1C[C@H](N)[C@H](O)[C@H](C)O1 [DOXORUBICIN]

IC50 (MCF7 [10]): 5.1 µM
Compound: CNC(=O)c1cc(Oc2ccc(NC(=O)Nc3ccc(Cl)c(C(F)(F)F)c3)cc2)ccn1 [SORAFENIB]
